Bridge positions count the residues as written; N and C are the ends. Peptide text beside a SMILES is read from it.
Legend:
human hepatocytes = test: In vitro metabolic stability in human hepatocytes; format: in vitro ADME; settings: 1 μM, 37° C., up to 60 min
Method: The linear or macrocyclic compounds 1-8, 11-14 and 23-26 (SEQ ID NOs: 1-8, 11-14 and 23-26) were incubated in concentration 1 μM with pooled cryopreserved human hepatocytes (mixed gender; 400 pl, 1.0 million viable cells/ml) for different time points (0, 20, 40 or 60 min) at 37° C. The cell density and viability were determined by trypan blue is exclusion method. The incubation was terminated by acetonitrile. The collected samples were centrifuged for 20 min at 2272×g and analyzed. The samples were analyzed by UPLC/PDA with high resolution mass spectrometry (QE-Orbitrap-MS on DDI mode) to monitor disappearance of the compound. Verapramil 1 μM was used as a disappearance rate control. The analytical method was optimized by using the parent compounds for optimum chromatographic properties (peak shape and retention) and mass spectrometric ionization. The Ion chromatograms were extracted from the total ion chromatograms using calculated monoisotopic accurate masses with 5 mDa window. Disappearance was based on LC/MS peak areas, marking 0 min as 100%. The first-order rate constants k (min-1) of the metabolism were obtained from the slope of time versus logarithm (% of remaining compound) plot using Excel software. The in vitro half-life (t1/2) of study compound is defined as: t1/2In2/k. Calculated half-life is based on compound disappearance in human liver hepatocytes.

[1] = test system: 3D in vitro model of blood-brain barrier; test: Permeation in a 3D in vitro model of blood-brain barrier; format: in vitro ADME, human endothelial cells, rat astrocytes and cortical neurons; settings: 500 nM, 2 h
Method: Due to the interest of developing CDNF- and MANF-derived peptides for treatment of CNS diseases with peripheral route of administration, and the fact that macrocyclization can improve cell-penetration and distribution properties of peptides, the ability of the compounds to pass the blood-brain barrier was tested in an established in vitro model of the blood-brain barrier. For this purpose, macrocyclic and linear compounds were incubated at 500 nM for 2 h in a two-compartment in vitro blood-brain barrier model (n=4) followed by sample collection is and LC-MS/MS analysis.
Primary culture of astrocytes. Rat astrocytes were prepared from a E15 embryos. Briefly, pregnant female rats (Wistar, Janvier Labs) of 15 days of gestation were deeply anesthetized in a (CO2 chamber) and then killed by cervical dislocation. Fetuses were collected and immediately placed in ice-cold L15 Leibovitz medium with a 2% penicillin (10,000 U/mL) and streptomycin (10 mg/mL) solution (PS) and 1% bovine serum albumin (BSA). Full brains were treated for 20 min at 37° C. with a trypsin- EDTA solution at a final concentration of 0.05% trypsin and 0.02% EDTA. Dissociated cells were cultured in DMEM 10% fetal calf serum. Purified astrocytes were used at passage 4 (P4).
Culture of human endothelial cells. A vial of HBMEC (Primary Human Brain Microvascular Endothelial Cells, ACBRI 376) was used at a specific passage 8 (P8).
Primary culture of cortical neurons. Rat cortical neurons were cultured as described by Callizot et al., 2013 with modification. Briefly, pregnant female rats (Wistar, Janvier Labs) of […] were deeply anesthetized in a CO2 chamber and then killed by cervical io dislocation. Fetuses were collected and immediately placed in ice-cold L15 Leibovitz medium with a 2% penicillin (10,000 U/mL) and streptomycin (10 mg/mL) solution (PS) and 1% bovine serum albumin (BSA). Cortices were treated for 20 min at 37° C. with a trypsin-EDTA solution at a final concentration of 0.05% trypsin and 0.02% EDTA. The dissociation was stopped by addition of Dulbecco's modified Eagle's medium (DMEM) with 4.5 g/L of glucose, containing is DNAse I grade II (final concentration 0.5 mg/m L) and 10% fetal calf serum (FCS). Cells were mechanically dissociated by three forced passages through the tip of a 10-m1 pipette. Cells were then centrifuged at 515×g for 10 min at 4° C. The pellet resuspended in a defined culture medium consisting of Neurobasal medium with a 2% solution of B27 supplement, 2 mmol/L of L-glutamine, 2% of PS solution, 10 ng/mL of brain-derived neurotrophic factor (BDNF). Viable cells were counted in a Neubauer cytometer, using the trypan blue exclusion test. The cortical neurons were seeded in the bottom of well pre-coated with poly-L-lysine at a density of 255,000 per well in 24-well plate with insert and cultured at 37° C. in an air (95%)-CO2 (5%) incubator. The culture medium was changed every other day.
Co-Culture of endothelial cells, astrocytes and primary cortical neurons. The procedure was performed as previously published (Xue et al., 2013 with modifications, Callizot et al., 2017). Briefly, on day 0, purified astrocytes (P4) were rapidly thawed in a water bath at 37° C. The cells were immediately put in DMEM containing 10% of FCS. Cell suspension was centrifuged at 515×g for 5 min at 4° C. and the pellets were suspended in DMEM F12 containing 10% of FCS. Cells were seeded in the outer side of the insert membrane (PET, 1 μm) at the density of 45,000 cells per insert and cultured at 37° C. in an air (95%)-CO2 (5%) incubator. Thirty-six (36) hours after the astrocytes seeding, HBMEC (P8) were rapidly thawed in a water bath at 37° C. and immediately put in DMEM containing 10% of FCS. Cell suspension was centrifuged at 515×g for 5 min at 4° C. and the pellets were suspended in EGM-2 bullet kit containing 5% of FCS, 1% of PS solution, 1.4 μM of Hydrocortisone, 5 μg/mL of acid ascorbic, 1% of lipid mixture, 10 mM of HEPES, 1 ng/mL of bFGF. […]

[2] = In vivo pharmacokinetics after intravenous administration to rats; parameters: species or system male Sprague-Dawley rats
[3] = rat, in vivo, 5 mg/kg intravenous bolus, male Sprague-Dawley rats

C[C@@H]1NC(=O)[C@@H]2CSSC[C@H](NC(=O)[C@H]([C@@H](C)O)NC(=O)[C@H](CCC(=O)O)NC(=O)CNC(=O)[C@H](Cc3c[nH]c4ccccc34)NC(=O)[C@H](CO)NC(=O)[C@H](CCCCN)NC(=O)[C@H](CCC(=O)O)NC1=O)C(=O)N[C@@H](CCCCN)C(=O)NCC(=O)N2 [Compound 14, WGETCKGCAEKS] (cyclo(AEKSWGETCKGC); disulfide 9-12)
stability in human hepatocytes as compared to linear counterpart (human hepatocytes): significantly improved stability | ability to pass through the in vitro blood-brain barrier as compared to linear counterpart [1]: improved ability to pass | plasma half-life, volume of distribution and mean residence time ([2]; intravenous administration to rats): improved | blood retention behavior ([2]; intravenous, 5 mg/kg, rats): improved blood retention behavior | time detected in the plasma after administration ([2]; intravenous, 5 mg/kg, rats): ≥ 2 h | AUC(0-inf) [2, 3]: 4970 ng·h/mL | MRT [2, 3]: 7.05 min | Vd [2, 3]: 0.12 L/kg | half-life [2, 3]: 15.8 min | clearance ([2]; rat, plasma, 5 mg/kg intravenous bolus, male Sprague-Dawley rats, read-out: CI): 16.8 mL/min/kg

Source: patent US20230391841A1, “MACROCYCLIC PEPTIDES” (Herantis Pharma OYJ, priority 2019, published 2023)
